Earlier results as cited in patent publication US20080153167A1, “In vivo amplification of neural progenitor cells” (priority 2006, published 2008).

Test system: PDGF driven tumors
Conditions: Shih et al. 2004

Clc1ccc(Nc2nnc(Cc3ccncc3)c3ccccc23)cc1 [PTK787]
effect on PDGF driven tumors: caused high-grade tumors to acquire low-grade histology, but it did not completely eradicate tumor growth
